US20210346354A1, “MACROPINOCYTOSIS IN CANCER” (Memorial Sloan-Kettering Cancer Center, priority 2015, published 2021)
Numbered stars: 1 amine (or outer) side, 2 acyl side, 3 side chain; on linkers, the order of the positions; unused ones are H or OH. Bridge positions count the residues as written; N and C are the ends. Square brackets hold non-standard residues; d marks the D form. Peptide text beside a SMILES is read from it. I, II: the chains in the order shown. Actinocin(9to1) = Cc1c2oc3c(C)ccc(C(=O)[*:1])c3nc-2c(C(=O)[*:2])c(N)c1=O; NMeV = CN[C@H](C(=O)O)C(C)C; Sar = CNCC(=O)O

Key:
[1] = system: mTORC1; assay: mTORC1 re-activation after 1 h EAA starvation, Western blotting against phosphorylated S6K1; type: cell-based, mouse; settings: for albumin-dependent mTORC1 activation: 3% albumin
Procedure: Cells were rinsed with ice-cold PBS and detached from culture plates by incubation with ice-cold trypsin (0.05%). Trypsin was inactivated with ice-cold serum, cells pelleted and rinsed with ice cold PBS. Cells were lysed in ice-cold lysis buffer [50 mM HEPES, pH 7.4, 40 mM […], 2 mM EDTA, 1 mM Na Orthovandanate, 50 mM NaF, 10 mM Na Pyrophosphate, 10 mM Na Glycerophosphate, 1% Triton X-100, 1×Halt protease and phosphatase inhibitor cocktails (Thermo Scientific)] for 15 min, and soluble lysate fractions isolated by centrifugation at 16,000 g for 10 min. Protein concentrations were determined with the Pierce BCA Protein Assay (Thermo Scientific) and equal amounts of proteins analyzed by SDS gel electrophoresis and Western blotting following standard protocols.
(§1) Cell culture experiments were performed at 37° C. and 5% CO2 in DMEM/F12 with 10% dialyzed FBS (molecular weight cut-off 10,000; Gemini Biosystems), 100 U/mL penicillin, 100 μg/mL streptomycin, 5 mM glucose and 2 mM glutamine. For proliferation assays, MEFs were plated in complete medium, 5 h later briefly rinsed and then cultured in starvation medium as indicated. For EAA titration experiments, EAAs were supplemented at indicated percentages of 1×MEM amino acid solution (M5550, Sigma). Cancer cell lines were cultured in complete medium for 1 day prior to starvation. Numbers of adherent cells, which are >95% viable as assessed by Trypan Blue exclusion were determined using a Multisizer 4 Coulter Counter (Beckman). For mTOR activation and localization experiments, cells were rinsed and then incubated in EAA starvation medium (DMEM/F12 lacking all amino acids except glutamine) for 1 h, and subsequently placed in medium supplemented with EAAs (1×MEM amino acid solution), albumin (3%, if not stated otherwise) or fresh EAA-free starvation medium for indicated periods of time.
Cells can sense EAAs through the mTORC1 pathway, which integrates amino acid levels with inputs from growth factor signaling to promote cell growth (Ma and Blenis, 2009; Shimobayashi and Hall, 2014). When cells are placed in EAA-free medium, the ability of mTORC1 to phosphorylate downstream targets is repressed. To test if catabolism of extracellularly provided proteins could restore mTORC1 activity in the absence of EAAs, mTORC1 was inactivated by subjecting MEFs to 1 h EAA starvation. Fresh medium containing EAAs or different concentrations of albumin was then added and mTORC1 re-activation assessed by Western blotting against phosphorylated S6K1.

[2] = system: mTOR; assay: Lysosomal recruitment of mTOR, immunofluorescence against mTOR and LAMP2; type: cell-based, mouse; settings: K-Ras^G12D MEFs
Procedure: For immunostainings, cells were rinsed with ice-cold PBS, fixed with 4% formaldehyde in PBS for 15 min and permeabilized with 0.05% Triton X-100 in PBS. After rinsing with PBS, cells were blocked with PBG (0.5% BSA, 0.2% cold water fish gelatin in PBS) for 30 min, incubated with primary antibodies in PBG for 1.5 h, washed two times with PBG+4% normal goat serum and then incubated with secondary antibodies in PBG+4% NGS for 45 min. After three washes with PBS, cells were mounted on microscope slides with Prolong Antifade+DAPI and imaged using a Leica TCS SP5-II.
as §1, with “For mTOR activation and localization experiments, cells were rinsed and then incubated in EAA starvation medium (DMEM/F12 lacking all amino acids except glutamine) for 1 h, and subsequently placed in medium supplemented with EAAs (1×MEM amino acid solution), albumin (3%, if not stated otherwise) or fresh EAA-free starvation medium for indicated periods of time.” left out

[3] = background statement; cited from earlier work
[4] = system: wild type and heterozygous K-Ras^G12D MEFs; assay: Cell numbers of wild type and K-Ras^G12D MEFs in medium lacking nutrients ±3% albumin; type: cell-based, mouse; settings: for cell viability: 3% albumin supplementation
Procedure: The dashed line indicates starting cell numbers. # below detection limit. *p<0.05, ** p<0.01, ***p<0.001. […] Data are represented as mean±STDEV (n=3).
as §1
To investigate whether activation of K-Ras signaling altered a cell's ability to metabolize extracellular proteins, we compared immortalized mouse embryonic fibroblasts (MEFs) harboring wild type K-Ras or a constitutively active K-Ras^G12D allele. Albumin is the major protein in plasma and interstitial fluids, its levels ranging from 2-5%. To mimic the protein-rich composition of extracellular fluids, culture medium was therefore supplemented with 10% dialyzed fetal bovine serum ±3% albumin.

[5] = system: wild type MEFs; assay: Proliferation assay (cell numbers) of wild type MEFs in starvation medium; type: cell-based, mouse
Procedure: as §1

[6] = system: K-Ras^G12D MEFs; assay: Proliferation assay (cell numbers) of K-Ras^G12D MEFs in starvation medium; type: cell-based, mouse
Procedure: as §1

[7] = system: K-Ras^G12D MEFs; assay: Lysosomal degradation of DQ-BSA (fluorescence dequenching) in K-Ras^G12D MEFs; type: cell-based, mouse; settings: for torin 1-induced increase in DQ-BSA fluorescence when transcription is blocked: 5 μg/ml actinomycin D or 1 μM triptolide, 30 min pre-treatment, 6 h DQ-BSA
Procedure: For live imaging, medium was supplemented with 0.3 mg/ml DQ Green BSA. 1 h prior to imaging, 50 nM LysoTracker Red and 0.2 μg/ml Hoechst were added. Cells were imaged either immediately after addition of DQ-BSA and torin 1, or after 5-6 h incubation using a Zeiss LSM 5 LIVE.
To characterize how cells derive leucine from extracellular proteins, cellular albumin uptake was investigated using constitutively fluorescent albumin and intracellular albumin proteolysis using a self-quenched albumin that emits fluorescence upon degradation (DQ-BSA) (Reis et al., 1998). […] It was then determined whether lysosomal albumin degradation was required to support growth during leucine starvation. […] Ras GTPases can promote cellular uptake of macromolecules through macropinocytosis (Bar-Sagi and Feramisco, 1986). […] To investigate whether this endocytic pathway contributed to albumin-dependent growth, cells were treated with the Na^+/H^+ exchange inhibitor EIPA, which blocks macropinocytosis but not other endocytic pathways (West et al., 1989).
To distinguish these possibilities, it was first tested whether mTORC1 inhibition increased internalization of extracellular macromolecules. […] It was next examined whether mTORC1 inhibition affected lysosomal degradation of internalized proteins.

[8] = K-Ras^G12D MEFs, inhibitor added at onset of starvation
[9] = 3% albumin after 1 h EAA starvation
[10] = EAAs at 5% of the levels in complete medium, 3% albumin

## CO/C1=C\C(C)=C\[C@@H](C)[C@@H](O)[C@@H](C)C/C(C)=C/C=C/[C@H](OC)[C@@H]([C@@H](C)[C@@H](O)[C@H](C)[C@@]2(O)C[C@@H](O)[C@H](C)[C@@H](C(C)C)O2)OC1=O [bafilomycin A1]
[1]; [8]
  albumin-dependent mTORC1 activation: strongly suppressed
  mTORC1 activation by EAAs: did not perturb
[2]; 200 nM bafilomycin A1 added at onset of EAA starvation
  movement of mTOR to lysosomal membranes in response to albumin: completely blocked

## C/C1=C\[C@H](C)C[C@H](C)OC(=O)C[C@H](c2ccc(O)cc2)NC(=O)[C@@H](Cc2c(Br)[nH]c3ccccc23)N(C)C(=O)[C@H](C)NC(=O)[C@@H](C)C1 [jasplakinolide]
[1]; [8]
  albumin-dependent mTORC1 activation: strongly reduced

## Oc1ccc2ccccc2c1SSc1c(O)ccc2ccccc12 [IPA-3]
[1]; [8]
  albumin-dependent mTORC1 activation: strongly reduced

## C=C1[C@@H](C)[C@H]2[C@H](Cc3ccccc3)NC(=O)[C@]23[C@H](OC(C)=O)/C=C/[C@@](C)(O)C(=O)[C@@H](C)C/C=C/[C@H]3[C@@H]1O [cytochalasin D]
[1]; [8]
  albumin-dependent mTORC1 activation: strongly reduced

## CO[C@H]1C[C@@H]2CC[C@@H](C)[C@@](O)(O2)C(=O)C(=O)N2CCCC[C@H]2C(=O)O[C@H]([C@H](C)C[C@@H]2CC[C@@H](O)[C@H](OC)C2)CC(=O)[C@H](C)/C=C(\C)[C@@H](O)[C@@H](OC)C(=O)[C@H](C)C[C@H](C)/C=C/C=C/C=C/1C [rapamycin]
[3]
  stability: not very stable

## albumin: bovine serum albumin (A1470, Sigma) added to medium as extracellular protein nutrient
[4]; glucose-free medium ±3% albumin
  cell proliferation: ceased to proliferate, regardless of the presence of 3% albumin
[4]; medium lacking all essential amino acids (EAAs), 3% albumin
  cell survival: striking rescue of cell survival
[4]; non-essential amino acid (NEAA) starvation
  cell viability: modestly improved viability
[4]; starved for leucine
  cell viability: completely restored
[1]; [9]
  time after which mTORC1-dependent phosphorylation resumed: 2 h
  time to maximal levels of mTORC1-dependent phosphorylation: 4 h
[1]; wild type and K-Ras^G12D MEFs, EAA-free medium with 1-3% albumin
  S6K1 phosphorylation: concentration-dependent increase in S6K1 phosphorylation
[2]; 1 h EAA starvation, then 3% albumin
  subcellular localization of mTOR: localized to punctate structures that were marked by the lysosomal membrane protein LAMP2
[5]; [10]
  survival and proliferation: improved survival of wild type MEFs, but did not support their proliferation
[5]; low-EAA medium, increasing albumin levels (1-3%)
  cell viability: improved viability
[6]; [10]
  cell proliferation: significant increase in proliferation
[6]; leucine-free medium containing 3% albumin, several consecutive days
  cell proliferation: able to sustain proliferation
[6]; low-EAA medium (5% EAAs)
  albumin concentration at which proliferation could be sustained: at least 1%
[6]; low-EAA medium, albumin concentration raised to 3%
  proliferation rate: increased progressively
[6]; medium lacking glutamine, 3% albumin supplementation
  cell numbers: increase in cell numbers, albeit to a minor extent
[6]; medium lacking isoleucine, lysine, or arginine, physiological levels of albumin (3%)
  cell viability: rescued cell viability

## CCN(CC)CCCC(C)Nc1ccnc2cc(Cl)ccc12 (centres unmarked) [chloroquine]
[7]; 250 nM torin 1 plus 20 μM chloroquine or protease inhibitors, 6 h
  DQ-BSA degradation in torin 1-treated cells: abrogated DQ-BSA degradation

## CC(C)[C@]12O[C@H]1[C@@H]1O[C@]13[C@]1(O[C@H]1C[C@H]1C4=C(CC[C@@]13C)C(=O)OC4)[C@@H]2O [triptolide]
[7]
  torin 1-induced increase in DQ-BSA fluorescence when transcription is blocked: unaffected

## Cc1c2oc3c(C)ccc(C(=O)N[C@@H]4C(=O)N[C@H](C(C)C)C(=O)N5CCC[C@H]5C(=O)N(C)CC(=O)N(C)[C@@H](C(C)C)C(=O)O[C@@H]4C)c3nc-2c(C(=O)N[C@@H]2C(=O)N[C@H](C(C)C)C(=O)N3CCC[C@H]3C(=O)N(C)CC(=O)N(C)[C@@H](C(C)C)C(=O)O[C@@H]2C)c(N)c1=O [actinomycin D] (I: T[dV]P[Sar][NMeV] / II: T[dV]P[Sar][NMeV]; ester I:1-I:C, II:1-II:C; linker I:N-II:N via Actinocin(9to1))
[7]
  torin 1-induced increase in DQ-BSA fluorescence when transcription is blocked: unaffected

## CCN(c1nc(N)c(C(=O)NC(=N)N)nc1Cl)C(C)C [EIPA]
[1]; [8]
  albumin-dependent mTORC1 activation: strongly reduced
[6]; EIPA treatment with free leucine added to culture medium
  cell proliferation: restored
[6]; leucine-free medium +3% albumin, 25 μM EIPA, day 3
  cell proliferation: strongly decreased
